Source: patent US11370774B2, “Substituted benzofuran, benzopyrrole, benzothiophene, and structurally related complement inhibitors” (BioCryst Pharmaceuticals, Inc., priority 2018, dated 2022)

Molecular target: Factor D (Homo sapiens (Human), UniProt P00746)
Assay: Factor D esterolytic assay (Z-Lys-SBzl substrate, DTNB, 405 nm)
Format: biochemical
Conditions: Z-Lys-SBzl 1.29 mM, pH 7.5, 10% DMSO, tested a minimum of three times, read-out: Measured Ki (IC50) Value for Compounds: IC50
Description: The IC50 value of a compound (i.e., the concentration of the compound that inhibits 50% of the enzymatic activity) was calculated according to the procedure reported in U.S. Pat. No. 6,653,340 B1, e.g., column 74 (incorporated by reference).
Specifically, the compounds were dissolved in a stock solution of DMSO at 10.0 or 100 mM. A portion of this stock solution was added to assay buffer in a final volume of 50 μL. Controls included buffer alone and enzyme solutions to which DMSO was added. Substrate was added to the reaction wells immediately or after incubation at room temperature. The reaction rates were measured spectrophotometrically by the generation of product at 405 nm for 600 sec. Background absorbance at 690 nm was measured and subtracted from the absorbance at 405 nm for each well.
The reaction rate for enzyme alone was compared to the rate of enzyme in the presence of inhibitor and the percent inhibition was calculated as shown below: Percent Inhibition=[Rate without inhibitor−Rate with inhibitor)/(Rate without inhibitor)]×100 Factor D Esterolytic Assay:
An established esterolytic assay for the measurement of Factor D activity and inhibition of Factor D activity was used (Kam, C. M.; McRae, B. J.; Harper, J. W.; Niemann, M. A.; Volanakis, J. E.; Powers, J. C. Human complement proteins D, C2, and B Active site mapping with peptide thioester substrates. J Biol. Chem. 1987, 262, 3444-3451). For this assay Z-Lys-SBzl, 1.29 mM (Kim, S.; Narayana, S. V. L; Volanakis, J. E. Mutational analysis of the substrate binding site of human complement Factor D. Biochemistry. 1994, 33, 14393-14399.) was used as the substrate for Factor D ([…]). Hydrolysis of this compound by Factor D liberated a free sulfhydryl group which is then reacted with 5,5′-dithiobis(2nitrobenzoic acid) producing an intense yellow color (Habeeb, A. F. S. A. Reaction of protein sulfhydryl groups with Ellman's Reagent. Methods in Enzymol. 1976, 25, 457-464). The assays were performed in 96 well microtiter plates and rates of hydrolysis were monitored at 405 nm on a Biotek Synergy H1 plate reader. Hydrolysis rates were reported as change in mOD/min. The assay was conducted in 100 mM HEPES, 500 mM NaCl, pH 7.5 containing 10% DMSO in a final volume of 50 μL per well.
An IC50, a compound concentration which inhibits 50% of the enzymatic activity, was calculated. Compounds in the examples were tested a minimum of three times.

Chain of Factor D (P00746 26-253): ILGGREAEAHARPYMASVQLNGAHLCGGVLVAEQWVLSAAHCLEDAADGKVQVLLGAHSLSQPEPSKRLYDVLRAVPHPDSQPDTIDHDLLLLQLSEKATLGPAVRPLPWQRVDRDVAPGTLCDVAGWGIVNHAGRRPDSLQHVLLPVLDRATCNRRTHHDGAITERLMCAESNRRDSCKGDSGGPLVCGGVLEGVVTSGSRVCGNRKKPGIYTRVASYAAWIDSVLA

| IC50 | SMILES |
| --- | --- |
| < 1 µM | CC(=O)c1ccc(OCc2cc(-c3cccc(CN)c3)c3occc3c2)c(CC(=O)O)c1 [Compound 330c, 2-(5-acetyl-2-((7-(3-(aminomethyl)phenyl)benzofuran-5-yl)methoxy)phenyl)acetic acid] |
| < 1 µM | NCc1cccc(-c2cc(COc3ccccc3C(=O)O)cc3ccoc23)c1 [Compound 293c, 2-((7-(3-(aminomethyl)phenyl)benzofuran-5-yl)methoxy)benzoic acid] |
| < 1 µM | NCc1cc(-c2cc(COc3cc(F)ccc3CC(=O)O)cc3ccoc23)ccn1 [Compound 365f, 2-(2-((7-(2-(aminomethyl)pyridin-4-yl)benzofuran-5-yl)methoxy)-4-fluorophenyl)acetic acid] |
| < 1 µM | CC(C)n1ccc2c(-c3ccnc(CN)c3)cc(COc3cc(F)ccc3CC(=O)O)cc21 [Compound 496c, 2-(2-((4-(2-(aminomethyl)pyridin-4-yl)-1-isopropyl-1H-indol-6-yl)methoxy)-4-fluorophenyl)acetic acid] |
| < 1 µM | CCc1ccc(CC(=O)O)c(OCc2cc(-c3cccc(CN)c3)c3occc3c2)c1 [Compound 316b, 2-(2-((7-(3-(aminomethyl)phenyl)benzofuran-5-yl)methoxy)-4-ethylphenyl)acetic acid] |
| < 1 µM | NCc1nccc(-c2cc(COc3ccccc3CC(=O)O)c(F)c3ccoc23)c1F [Compound 171c, 2-(2-((7-(2-(aminomethyl)-3-fluoropyridin-4-yl)-4-fluorobenzofuran-5-yl)methoxy)phenyl)acetic acid] |
| < 1 µM | CC(C)(C)c1ccc(CC(=O)O)c(OCc2cc(-c3cccc(CN)c3)c3occc3c2)c1 [Compound 317f, 2-(2-((7-(3-(aminomethyl)phenyl)benzofuran-5-yl)methoxy)-4-(tert-butyl)phenyl)acetic acid] |
| < 1 µM | COc1ccc(CC(=O)O)c(OCc2cc(-c3cccc(CN)c3)c3oc(F)cc3c2)c1 [Compound 480c, 2-(2-((7-(3-(aminomethyl)phenyl)-2-fluorobenzofuran-5-yl)methoxy)-4-methoxyphenyl)acetic acid] |
| < 1 µM | NCc1cccc(-c2nc(C(=O)Nc3ccsc3CC(=O)O)c3cccn3n2)c1F [Compound 144d, 2-(3-(2-(3-(aminomethyl)-2-fluorophenyl)pyrrolo[2,1-f][1,2,4]triazine-4-carboxamido)thiophen-2-yl)acetic acid] |
| < 1 µM | Cc1cc(-c2ccc(CC(=O)O)c(OCc3cc(-c4cccc(CN)c4)c4occc4c3)c2)ccn1 [Compound 320c, 2-(2-((7-(3-(aminomethyl)phenyl)benzofuran-5-yl)methoxy)-4-(2-methylpyridin-4-yl)phenyl)acetic acid] |
| < 1 µM | NCc1cccc(-c2cc(COc3c(F)cccc3CC(=O)O)cc3ccoc23)c1 [Compound 264c, 2-(2-((7-(3-(aminomethyl)phenyl)benzofuran-5-yl)methoxy)-3-fluorophenyl)acetic acid] |
| < 1 µM | Cc1nc2cc(COc3ccccc3CC(=O)O)cc(-c3cccc(CN)c3)c2o1 [Compound 91h, 2-(2-((7-(3-(aminomethyl)phenyl)-2-methylbenzo[d]oxazol-5-yl)methoxy)phenyl)acetic acid] |
| < 1 µM | Cc1ccc(CC(=O)O)c(NC(=O)c2nc(-c3cccc(CN)c3)nn3cccc23)c1 [Compound 39d, 2-(2-(2-(3-(aminomethyl)phenyl)pyrrolo[2,1-f][1,2,4]triazine-4-carboxamido)-4-methylphenyl)acetic acid] |
| < 1 µM | NCc1cccc(-c2cc(COc3ccccc3CC(=O)O)cc3cc(C(F)(F)F)oc23)c1F [Compound 235b, 2-(2-((7-(3-(aminomethyl)-2-fluorophenyl)-2-(trifluoromethyl)benzofuran-5-yl)methoxy)phenyl)acetic acid] |
| < 1 µM | Cc1ccc(CC(=O)O)c(OCc2cc(-c3ccnc(CN)c3)c3occc3c2)c1 [Compound 271e, 2-(2-((7-(2-(aminomethyl)pyridin-4-yl)benzofuran-5-yl)methoxy)-4-methylphenyl)acetic acid] |
| < 1 µM | COCc1cc2cc(COc3cc(OC)ccc3CC(=O)O)cc(-c3cccc(CN)c3F)c2o1 [Compound 467b, 2-(2-((7-(3-(aminomethyl)-2-fluorophenyl)-2-(methoxymethyl)benzofuran-5-yl)methoxy)-4-methoxyphenyl)acetic acid] |
| < 1 µM | Cc1oc2c(-c3cccc(CN)c3)cc(COc3ccccc3CC(=O)O)cc2c1-c1ccoc1 [Compound 459h, 2-(2-((7-(3-(aminomethyl)phenyl)-3-(furan-3-yl)-2-methylbenzofuran-5-yl)methoxy)phenyl)acetic acid] |
| < 1 µM | Cc1ccc(CC(=O)O)c(OCc2cc(-c3cccc(CN)c3)c3oc(C)cc3c2)c1 [Compound 423c, 2-(2-((7-(3-(aminomethyl)phenyl)-2-methylbenzofuran-5-yl)methoxy)-4-methylphenyl)acetic acid] |
| < 1 µM | NCc1cccc(-c2cc(COc3ccc(F)cc3CC(=O)O)cc3ccoc23)c1 [Compound 205d, 2-(2-((7-(3-(aminomethyl)phenyl)benzofuran-5-yl)methoxy)-5-fluorophenyl)acetic acid] |
| < 1 µM | CCc1ccc(CC(=O)O)c(OCc2cc(-c3cccc(CN)c3F)c3oc(F)cc3c2)c1 [Compound 470b, 2-(2-((7-(3-(aminomethyl)-2-fluorophenyl)-2-fluorobenzofuran-5-yl)methoxy)-4-ethylphenyl)acetic acid] |
| < 1 µM | Cc1cc(CC(=O)O)c(OCc2cc(-c3cccc(CN)c3)c3occc3c2)c2c1CCC2 [Compound 286g, 2-(4-((7-(3-(aminomethyl)phenyl)benzofuran-5-yl)methoxy)-7-methyl-2,3-dihydro-1H-inden-5-yl)acetic acid] |
| < 1 µM | NCc1cccc(-c2nc(C(=O)Nc3ccccc3CC(=O)O)cc3[nH]ccc23)c1 [Compound 83h, 2-(2-(4-(3-(aminomethyl)phenyl)-1H-pyrrolo[3,2-c]pyridine-6-carboxamido)phenyl)acetic acid] |
| > 10 µM | NCc1cccc(-c2cc(C(=O)Nc3ccccc3CC(=O)O)cn3cnnc23)c1 [Compound 17c, 2-(2-(8-(3-(aminomethyl)phenyl)-[1,2,4]triazolo[4,3-a]pyridine-6-carboxamido)phenyl)acetic acid] |
| < 1 µM | COCc1cc2cc(COc3cc(C#N)ccc3CC(=O)O)cc(-c3cccc(CN)c3F)c2o1 [Compound 416d, 2-(2-((7-(3-(aminomethyl)-2-fluorophenyl)-2-(methoxymethyl)benzofuran-5-yl)methoxy)-4-cyanophenyl)acetic acid] |
| < 1 µM | NCc1cccc(-c2cc(COc3ccc(O)cc3CC(=O)O)cc3ccoc23)c1 [Compound 249f, 2-(2-((7-(3-(aminomethyl)phenyl)benzofuran-5-yl)methoxy)-5-hydroxyphenyl)acetic acid] |
| < 1 µM | CS(=O)(=O)n1ccc2c(-c3ccnc(CN)c3)cc(COc3ccccc3CC(=O)O)cc21 [Compound 211c, 2-(2-((4-(2-(aminomethyl)pyridin-4-yl)-1-(methylsulfonyl)-1H-indol-6-yl)methoxy)phenyl)acetic acid] |
| < 1 µM | CC(C)n1ccc2c(-c3ccnc(CN)c3F)cc(COc3ccccc3CC(=O)O)cc21 [Compound 121b, 2-(2-((4-(2-(aminomethyl)-3-fluoropyridin-4-yl)-1-isopropyl-1H-indol-6-yl)methoxy)phenyl)acetic acid] |
